Assay results from US20120093726A1, “Radiolabeled Fluorine Derivatives of Methionine” (priority 2009, published 2012).

Legend:
[1] = system: A431 squamous cell carcinoma xenografts; test: PET imaging of tracer uptake in A431 tumoured mice; assay type: in vivo, Balb/c Nude mice; details: intravenous, PET at 90 minutes post-tracer injection
Protocol: (§1) In vivo imaging studies were performed on a Phillips Allegro™ small animal imaging system in mice implanted with A431 squamous cell carcinoma and HT-29 colon carcinoma xenografts on the left leg of Balb/c Nude mice. Approximately 400 μCi of each of D and L ^18FPM in 100 μl saline were injected intravenously and PET imaging performed at 90 minutes post-tracer injection. A comparison with FDG (fluorodeoxyglucose) uptake was also performed.

[2] = system: HT-29 colon carcinoma xenografts; test: PET imaging of tracer uptake in HT29 tumoured mice; assay type: in vivo, Balb/c Nude mice; details: intravenous, PET at 90 minutes post-tracer injection
Protocol: as §1

[3] = system: MCF-7 (breast adenocarcinoma) tumour cells; test: Cell uptake study, MCF-7; assay type: cell-based, human; details: for uptake, rank among the cell lines: MCF-7 breast tumour cell line, 37° C., 2-240 min; for time for which uptake increased before staying at the same level: MCF-7 cell line
Protocol: (§2) The human A375 (malignant melanoma), A431 (epidermoid carcinoma), HT29 (colorectal adenocarcinoma), MCF-7 (breast adenocarcinoma), MDA-MB-231 (breast adenocarcinoma), PC-3 (prostate adenocarcinoma) tumour cells were grown in RPMI-1640 medium supplemented with 10% fetal bovine serum (FBS) and 2 mM L-glutamine. The human H460 (large cell lung carcinoma) cell line was grown in RPMI-1640 supplemented with 10% FBS, 1 mM L-glutamine and 1 mM sodium pyruvate. The MiaPaCa2 human pancreatic carcinoma cell line was grown in Dulbecco's Modified Eagle medium supplemented with 10% FBS, 2.5% horse serum, 1 mM L-glutamine and 1 mM sodium pyruvate. The human U87MG glioblastoma cell line was cultured in Minimum Essential Medium supplemented with 10% FBS, 2 mM L-glutamine and 1 mM sodium pyruvate. Cells were maintained in 175 cm^2 flasks in a 5% CO2, 37° C. humidified incubator. Cells were passaged routinely every 7 days and the media changed twice weekly.
(§3) One day prior to the experiments, cell cultures were trypsinised with a solution of 0.05% trypsin in PBS without Ca^2+ and Mg^2+ and containing 0.02% EDTA. Cells were seeded in 24-well culture dishes in complete medium and left to attach overnight. For MCF-7 cells, 3×10^5 cells were seeded, for all other cell lines, 2.5×10^5 cells were seeded.
(§4) On the day of the study, the cells were counted and the viability assessed in triplicate for each cell line. Before the incubation with radiolabelled FPM, cells were washed once with PBS containing Ca^2+ and Mg^2+ to remove all traces of the culture medium. The radiolabelled FPM was formulated in PBS containing Ca^2+ and Mg^2+. Aliquots of 500 μL (˜10 μCi) of freshly prepared FPM were added and the cells were incubated in triplicate at 37° C. for 2, 15, 30, 60, 120, 180 and 240 min. After stopping the tracer uptake with 1 mL of ice-cold PBS, cells were solubilised with 500 μL of 0.2N NaOH and the activity was measured with a gamma counter. The results were expressed as percent of applied dose per 1×10^5 cells.

[4] = system: HT29 (colorectal adenocarcinoma) tumour cells; test: Cell uptake study, HT29; assay type: cell-based, human; details: HT29 colon cell line
Protocol: as §2, with “weekly. […]” for “weekly.”
(§5) On the day of the study, the cells were counted and the viability assessed in triplicate for each cell line. […] After stopping the tracer uptake with 1 mL of ice-cold PBS, cells were solubilised with 500 μL of 0.2N NaOH and the activity was measured with a gamma counter. The results were expressed as percent of applied dose per 1×10^5 cells.

[5] = system: MiaPaCa2 human pancreatic carcinoma cell line; test: Cell uptake study, MiaPaCa2; assay type: cell-based; details: MiaPaCa2 tumour cell line
Protocol: as §2, with “weekly. […]” for “weekly.”
as §5

[6] = system: various types of tumour cells; test: Cell uptake study, panel of tumour cell lines; assay type: cell-based, human; details: for uptake into tumour cells: particularly MCF-7, U87MG, MiaPaCa2 and A375 cell lines
Protocol: as §2, §3, §4

[7] = system: MiaPaCa2 cells; test: Competitive inhibition study of tracer uptake, MiaPaCa2; assay type: cell-based, human; details: MeAIB 12.5 mmol/L aliquot, 30 min, 37° C.
Protocol: as §2, with “weekly. […]” for “weekly.”
as §5, with “cells. The percentage of uptake in the treatment groups, relative to the control group was determined.” for “cells.”

[8] = system: HT29 cells; test: Competitive inhibition study of tracer uptake, HT29; assay type: cell-based, human; details: MeAIB 12.5 mmol/L aliquot, 30 min, 37° C.
Protocol: as §2, with “weekly. […]” for “weekly.”
as §5, with “cells. The percentage of uptake in the treatment groups, relative to the control group was determined.” for “cells.”

[9] = system: H460 cells; test: Competitive inhibition study of tracer uptake, H460; assay type: cell-based, human; details: MeAIB 12.5 mmol/L aliquot, 30 min, 37° C.
Protocol: as §2, with “weekly. […]” for “weekly.”
as §5, with “cells. The percentage of uptake in the treatment groups, relative to the control group was determined.” for “cells.”

[10] = system: sodium-independent L type transport system in tumour cell lines; test: Competitive inhibition study of tracer uptake, all cell lines; assay type: cell-based, human; details: for tracer uptake in the presence of BCH: all cell lines, BCH 12.5 mmol/L aliquot, 30 min, 37° C.; for transport mechanism of cell uptake: from inhibition by BCH and MeAIB
Protocol: as §2, §3
Inhibitor studies were carried out to investigate the transport mechanism involved in the uptake of FPM in tumour cells. The following amino acid transport inhibitors were used; 2-amino-bicyclo[2.2.1]-heptane-2-carboxylic acid (BCH) and N-methyl-α-aminoisobutyric acid (MeAIB) for the sodium-independent L type transport system and the A type amino acid transport system respectively.
On the day of the study, the cells were counted and the viability assessed in triplicate for each cell line. Before the incubation with radiolabelled FPM, cells were washed once with PBS containing Ca^2+ and Mg^2+ to remove all traces of the culture medium. Aliquots of 400 μL of inhibitor (12.5 mmol/L in PBS with Ca^2+ and Mg^2+) or PBS (for controls) were added to cells prior to the addition of radiolabelled FPM. Aliquots of 100 μL (about 10 μCi) of freshly prepared FPM were added and the cells were incubated in triplicate at 37° C. for 30 min. After stopping the tracer uptake with 1 mL of ice-cold PBS, cells were solubilised with 500 μL of 0.2N NaOH and the activity was measured with a gamma counter. The results were expressed as percent of applied dose per 1×10^5 cells. The percentage of uptake in the treatment groups, relative to the control group was determined.

[11] = cited from earlier work
[12] = Radiochemical purity and stability in aqueous formulations (HPLC); assay type: physicochemical
Protocol: The stability of [^18F]-L-FPHCys and [^18F]-D-FPHCys formulated in each of the following solutions: • 1) 5% EtOH/95% phosphate buffer, pH 6, 0.15 M (HLPC solvent) • 2) saline • 3) Dulbecco's phosphate buffered saline, pH 7 • 4) Phosphate buffer, pH 7. were analysed by HPLC using a Gemini 150×4.6 mm, 5 μm, eluting with 100% Phosphate Buffer, pH 11.5, 0.05 M at 1 mL/min, λ=226 nm.

Compound | percent injected dose (% ID) in tumour [1] [%] | tumour to background ratio [1] | percent injected dose (% ID) in tumour [2] [%] | tumour to background ratio [2] | uptake, rank among the cell lines [3] | time for which uptake increased before staying at the same level [3] [min] | uptake, rank among the cell lines [4] | time of peak uptake [5] | uptake into tumour cells [6] | tracer uptake in the presence of MeAIB, % of control uptake [9] [%] | tracer uptake in the presence of BCH [10] | transport mechanism of cell uptake [10] | other results
OC[C@H]1OC(O)[C@H]([18F])[C@@H](O)[C@@H]1O (stereo partly drawn) [FDG, [^18F]Fluoro-2-deoxy-D-glucose, reference compound] | 5.84 | 3.33 | 2.37 | 2.11 | – | – | – | – | – | – | – | – | –
N[C@@H](CCSCCC[18F])C(=O)O [[^18F]-L-FPHCys, S-(3-[^18F]fluoropropyl)-L-homocysteine] | 2.12 | 5.39 | 2.13 | 2.45 | highest | 120 | lowest uptake | 30 | high uptake | 70 | significantly inhibited | predominantly taken up by cells via the sodium-independent L type transport system | uptake compared with the other enantiomer ([6]; all cell lines): higher; tracer uptake in the presence of MeAIB, % of control uptake [7]: 79%; tracer uptake in the presence of MeAIB, % of control uptake [8]: 84%
N[C@@H](CCSCC[18F])C(=O)O [[^18F]FEHCys, S-(2-[^18F]fluoroethyl)-L-homocysteine] | – | – | – | – | – | – | – | – | – | – | – | – | stability in aqueous systems [11]: considerable instability
N[C@@H](CCSCCC[18F])C(=O)O [[^18F]FPHCys, S-(3-[^18F]fluoropropyl)homocysteine] | – | – | – | – | – | – | – | – | – | – | – | – | stability in an aqueous environment compared with the S-ethyl homologue ([12]; aqueous environment): substantially more stable
S-(3-[^18F]fluoropropyl)-D-homocysteine [[^18F]-D-FPHCys] | 1.96 | 7.86 | 0.75 | 2.10 | highest | 120 | lowest uptake | 30 min | high uptake | 76 | significantly inhibited | predominantly taken up by cells via the sodium-independent L type transport system | % ROI of product peak, F18 chromatogram (radiochemical purity) ([12]; 5% EtOH/95% phosphate buffer, pH 6, 0.15 M (HPLC solvent), t=0): 99.74%; % ROI of product peak, F18 chromatogram (radiochemical purity) ([12]; 5% EtOH/95% phosphate buffer, pH 6, 0.15 M (HPLC solvent), t=4 h): 99.06%; % ROI of product peak, F18 chromatogram (radiochemical purity) ([12]; Dulbecco's phosphate buffered saline, pH 7, t=0): 98.97%; % ROI of product peak, F18 chromatogram (radiochemical purity) ([12]; Dulbecco's phosphate buffered saline, pH 7, t=4 h): 96.20%; % ROI of product peak, F18 chromatogram (radiochemical purity) ([12]; PBS (phosphate buffer, pH 7), t=0): 98.44%; % ROI of product peak, F18 chromatogram (radiochemical purity) ([12]; PBS (phosphate buffer, pH 7), t=4 h): 96.51%; % ROI of product peak, F18 chromatogram (radiochemical purity) ([12]; saline, t=0): 99.30%; % ROI of product peak, F18 chromatogram (radiochemical purity) ([12]; saline, t=4 h): 95.23%
